Measurements as given in US20110207694A1, “MAMMALIAN HYPOTHALAMIC NUTRIENT MODULATION OF GLUCOSE METABOLISM” (priority 2005, published 2011).
Entries after “also recorded” stand apart in the source; their conditions may differ.

Experiments:
[1] = system: conscious rats; experiment: Circulating lactate infusion with central LDH inhibitor or KATP blocker: glucose kinetics during pancreatic clamps; conditions: pancreatic clamps
[2] = system: high fat-fed rats; experiment: Central glucose or lactate in regular chow vs 3-day high fat diet-fed animals: glucose production; type: in vivo, rat; conditions: central administration
Excerpt: The latter is an excellent model for diet-induced insulin resistance.

[3] = system: conscious rats; experiment: ICV glucose or lactate infusion with pancreatic basal insulin clamp: plasma glucose and liver glucose production; type: in vivo, rat
Excerpt: We hypothesize that the hypothalamic sensing of glucose-derived pyruvate is a novel regulator of endogenous glucose production (GP). […] We propose that an increase in neuronal pyruvate levels is a hypothalamic signal of nutrient availability.
Long chain fatty acids in the brain decrease glucose production (GP) by the liver via activation of hypothalamus ATP-sensitive (KATP) channels. Here we tested whether (A) direct administration of glucose in the third cerebral ventricle can alter glucose production by the liver, and (B) whether this effect requires its metabolism in the TCA cycle.

[4] = system: hepatic VLDL secretion; experiment: Lipoprotein (VLDL) secretion studies with tyloxapol; NMR particle size; type: in vivo, rat; conditions: increased central metabolism of lactate to pyruvate, rats (Example 3)
Method: Lipoproteins secretion and particles concentration and size measurements. Tyloxapol (600 mg/kg; ˜1 min) was intravenously injected to inhibit endogenous lipoprotein lipase. This high dose of tyloxapol ensured complete inhibition of triglyceride clearance during VLDL secretion studies. Plasma samples were taken every 30 min for triglycerides analysis and for lipoprotein profiling. Plasma VLDL particles concentration and size were determined by nuclear magnetic resonance spectroscopy (lipoprofile-II test) at Liposcience as previously described (Otvos et al., 1991; 1992). This NMR lipoprofile-II test is based on the assumption that each plasma lipoprotein particle of a particular size gives its own characteristic lipid NMR signal. The intensity of the signal is also in proportion to the concentration of the particle. The diameter range for large, medium and small VLDL is >60 nm, 35-60 nm, and 27-35 nm, respectively.
Selective hepatic branch vagotomy. The surgeries were performed as described (Lam et al., 2005c).
Treatment with SCD1 ASO. Five and two days before the lipoprotein secretion studies, rats received a single intra-peritoneal injection of either SCD1 or scrambled (SCR) ASO (100 mg/kg of body weight). […] In a separate set of studies, rats received intra-portal injection of either SCD1 or SCR ASO (40 mg/kg of body weight) (Gutierrez-Juarez et al., 2006) three days before the lipoprotein secretion studies.
Portal oleate infusion. Chronic portal catheter was implanted and 7 days were allowed for rat recovery. Oleic acid (45 mM; dissolved in 45% HBP) was infused at a rate of 40 μl/h for 2.5 h (1 h before the 90 min lipoprotein secretion studies). This dose enabled the reconstitution of hepatic oleyl-CoA levels back to normal during portal SCD1 ASO (FIG. 11c) or ICV glucose studies (FIG. 11d).

[5] = system: high fat-fed rats; experiment: ICV glucose or lactate in high fat-fed rats: plasma triglycerides and VLDL secretion; type: in vivo, rat
Method: High fat feeding. Male Sprague-Dawley rats were fed a highly palatable high fat diet for three days. These rats developed hyperinsulinemia and hepatic insulin resistance (Morgan et al., 2004). […] In a separate set of studies, lipoprotein secretion studies were performed at the beginning of the ICV infusions.

[6] = system: male Sprague-Dawley rats; experiment: ICV infusion: plasma triglycerides and metabolites under basal and pancreatic clamp conditions; type: in vivo, rat
Excerpt: Animal preparation. We studied 10-week-old male Sprague-Dawley rats. Rats underwent stereotaxic surgery to indwell single catheters in the third cerebral ventricle {intracerebroventricular (ICV)(Obici et al., 2001) or bilateral catheters into the mediobasal hypothalamus (Lam et al., 2005c). One week later, we placed indwelling catheters in the internal jugular vein and carotid artery for sampling and infusion during the in vivo experiments (Obici et al., 2001). Recovery from surgery was monitored by measuring daily food intake and weight gain for 4-5 days after surgery.
(§1) Infusion protocols. The in vivo infusion experiments lasted a total of 360 min, and the experiments were carried out in rats that had their food removed ˜5 h before the experiments. Thus, at the time of the experiment, the rats are in post-absorptive state since their stomach should be completely emptied by 5 h fasting. […] This ICV glucose protocol physiologically elevate hypothalamic glucose concentration by ˜70% as previously described (Lam et al., 2005b) and is similar to that induced by a doubling of the circulating glucose levels (Lam et al., 2005b). During the ICV infusions, we monitored the plasma metabolite levels under pre-infused (0 min), basal (180-240 min) and pancreatic clamp (300-360 min) conditions. […] A basal insulin-pancreatic clamp was performed in the final 2 h (240-360 min) of the study as previously described (Lam et al., 2005b). In brief, a continuous infusion of insulin (1 mU/kg.min) and somatostatin (3 μg/kg.min) was administered, and a variable infusion of a 25% glucose solution was started and periodically adjusted to clamp and maintain the plasma glucose concentration at ˜8 mM. […] To examine the time-dependent effects of ICY glucose on plasma triglycerides, ICY (5 μl/h) 2 mM D-glucose or mannitol was administrated for 210 min and plasma triglyceride levels were monitored at 0, 20, 60, 120, 180, 210 min. […] Plasma triglycerides were monitored under basal, pancreatic clamp and tyloxapol-treated conditions. At the end of the infusion experiments, rats were anesthetized and tissue samples were freeze-clamped in situ with aluminum tongs pre-cooled in liquid nitrogen. All tissue samples were stored at −80° C. for subsequent analysis.
Biochemical analyses. Plasma glucose concentrations were measured by the glucose oxidase method (Glucose Analyzer II, Beckman Instruments, Inc., Fullerton, Calif.). […] FFA concentrations were determined by an enzyme assay in accordance with the manufacturer's specifications (Waco Pure Chemical Industries. Osaka. Japan). Plasma insulin concentrations (with rat and porcine insulin standards) were measured by radioimmunoassay (RIA). Plasma adiponectin concentrations were measured by RIA (Linco Inc., Austin, Tex., USA). Liver triglycerides were measured as described (Muse et al., 2004).
Calculations. Statistical analysis was done by unpaired Student's t test or analysis of variance as appropriate. Data are presented as means±SEM. All values were collapsed into a single value for each animal prior to the calculation of mean. The time period 180-240 min was averaged for the basal and the time period 300-360 min was averaged for the clamp conditions.

[7] = system: conscious rats; experiment: Intravenous lactate infusion with or without MBH oxamate: plasma TG and hepatic TG-VLDL production; type: in vivo, rat
Method: as §1
VLDL are decreased in the hours following an acute bout of exercise. […] To investigate the mechanism by which lactate lowers plasma TG levels, the rate of production of hepatic TG-enriched VLDL was measured.

[8] = system: rats; experiment: Food intake after central (ICV) glucose or lactate; type: in vivo, rat

Question: With `C[C@H](O)C(=O)O` [lactate, L-lactate] as the compound, how does the glucose infusion kinetics ([1]; intravenous infusion of lactate alone) read?
Answer: did not affect glucose infusion kinetics

Question: What about the “elevation of plasma lactate” value ([1]; intravenous infusion of lactate) of the same compound?
Answer: ~3 fold

Question: What about the glucose production ([2]; 3-day high fat diet-fed animals) of the same compound?
Answer: entirely preserved; also recorded: lowered glucose production

Question: What about the glucose production ([2]; regular chow animals) of the same compound?
Answer: lowered glucose production

Question: What about the circulating glucose levels ([3]; central (ICV) administration) of the same compound?
Answer: sufficient to markedly diminish circulating glucose levels; also recorded: lowered circulating glucose levels

Question: And the gluconeogenesis and glycogenolysis ([3]; central administration)?
Answer: inhibited gluconeogenesis and glycogenolysis

Question: And the “liver glucose production, G6Pase flux and mRNA” value ([3]; central administration)?
Answer: reduced liver glucose production, G6Pase flux and mRNA

Question: What about the plasma glucose concentrations ([3]; four hour ICV infusion 5 μl/h (glucose 2 mM, lactate 5 mM), control 150±4) of the same compound?
Answer: 129 ± 3 mg/dL

Question: And the “exogenous glucose infusion rate required to maintain euglycemia” value ([3]; pancreatic basal insulin clamps, central administration)?
Answer: increased exogenous glucose infusion rate

Question: And the “GP (glucose production)” value ([3]; pancreatic clamps, plasma glucose and insulin at basal, ICV infusion, control 10.4±0.1 (glucose), 11.7±0.6 (lactate))?
Answer: 6.5 ± 0.6 mg/kg/min

Question: What about the “suppression of hepatic TG-enriched VLDL production” value [4] of the same compound?
Answer: ~40%

Question: And the “rate of appearance of VLDL-triglycerides in plasma” value ([5]; HF rats, tyloxapol)?
Answer: decreased the rate of appearance of VLDL-triglycerides in plasma to levels similar to those of SC rats

Question: What about the “circulating levels of triglycerides” value ([5]; high fat-fed rats) of the same compound?
Answer: effectively lowered the circulating levels of triglycerides to levels similar to those of rats on a standard chow

Question: And the “plasma free fatty acids levels” value ([6]; ICV infusion)?
Answer: did not affect plasma free fatty acids levels

Question: What about the plasma triglyceride levels ([6]; ICV infusion (glucose 2 mM, L-lactate 5 mM)) of the same compound?
Answer: markedly decreased plasma triglycerides levels

Question: And the “suppression of plasma TG levels” value ([6]; increased central metabolism of lactate to pyruvate, rats (Example 3))?
Answer: ~50%

Question: And the “plasma TG levels” value ([7]; i.v. lactate 100 μmol•kg-1•min-1, i.v. saline 0.28±0.09)?
Answer: 0.11 ± 0.02 mM

Question: And the “rate of production of hepatic TG-enriched VLDL” value ([7]; i.v. lactate infusion, i.v. saline 0.059±0.003)?
Answer: 0.041 ± 0.002 mM/min

Question: And the “decrease in VLDL production” value ([7]; i.v. lactate vs i.v. saline)?
Answer: 31%

Question: And the “lowering of plasma TG levels” value ([7]; i.v. lactate vs i.v. saline)?
Answer: > 50%

Question: What about the VLDL secretion ([7]; physiological increase in plasma lactate) of the same compound?
Answer: sufficient to inhibit VLDL secretion

Question: And the plasma triglyceride ([7]; ~two-fold increase in circulating lactate, basal and clamp conditions)?
Answer: significant decrease in plasma triglyceride in both conditions

Question: What about the food intake overnight ([8]; central administration) of the same compound?
Answer: inhibits food intake overnight

Question: And the “decrease in food intake” value ([8]; the day following ICV injection)?
Answer: ~40%
